Data from ChEMBL document CHEMBL3046235, “In vitro biological activities of new heterocyclic chalcone derivatives” (Med Chem Res, 2013).
In brackets after ≈: the same amount, converted by molar mass. Activity calls are given as the source filed them. No cut-off for these calls is given here.

Key:
[1] = test system: Candida albicans; assay: Antimicrobial activity against Candida albicans assessed as diameter of growth inhibition zone at 40 ug/ml by disk diffusion method; format: functional; settings: read-out: DIZ
[2] = test system: Aspergillus niger; assay: Antimicrobial activity against Aspergillus niger assessed as diameter of growth inhibition zone at 40 ug/ml by disk diffusion method; format: functional; settings: read-out: DIZ
[3] = test system: Salmonella typhi; assay: Antimicrobial activity against Salmonella enterica subsp. enterica serovar Typhi isolated from infected patient assessed as diameter of growth inhibition zone at 40 ug/ml by disk diffusion method; format: functional; settings: read-out: DIZ
[4] = test system: Bacillus subtilis; assay: Antimicrobial activity against Bacillus subtilis isolated from infected patient assessed as diameter of growth inhibition zone at 40 ug/ml by disk diffusion method; format: functional; settings: read-out: DIZ
[5] = test system: Staphylococcus aureus; assay: Antimicrobial activity against Staphylococcus aureus isolated from infected patient assessed as diameter of growth inhibition zone at 40 ug/ml by disk diffusion method; format: functional; settings: read-out: DIZ
[6] = test system: Escherichia coli; assay: Antimicrobial activity against Escherichia coli isolated from infected patient assessed as diameter of growth inhibition zone at 40 ug/ml by disk diffusion method; format: functional; settings: read-out: DIZ
[7] = test system: HepG2; assay: Cytotoxicity against Homo sapiens (human) HepG2 cells assessed as inhibition of cell viability by trypan blue exclusion method; format: functional; settings: read-out: LC50 (the source's name)
[8] = test system: Goatpox virus; assay: Antiviral activity against Goatpox virus infected African green monkey Vero cells assessed as inhibition of viral replication at MNTC dose incubated for 24 hr measured after 6 days; format: functional
[9] = test system: Buffalopox virus; assay: Antiviral activity against Buffalopox virus virus infected African green monkey Vero cells assessed as inhibition of viral replication at MNTC dose incubated for 24 hr measured after 4 days; format: functional
[10] = test system: Camelpox virus; assay: Antiviral activity against Camelpox virus infected African green monkey Vero cells assessed as inhibition of viral replication at MNTC dose incubated for 24 hr measured after 3 days; format: functional
[11] = test system: Goatpox virus; assay: Antiviral activity against Goatpox virus infected African green monkey Vero cells assessed as reduction of virus titers at MNTC dose incubated for 24 hr measured after 6 days by TCID50 assay; format: functional, organism-based
[12] = test system: Buffalopox virus; assay: Antiviral activity against Buffalopox virus virus infected African green monkey Vero cells assessed as reduction of virus titers at MNTC dose incubated for 24 hr measured after 4 days by TCID50 assay; format: functional, organism-based
[13] = test system: Camelpox virus; assay: Antiviral activity against Camelpox virus infected African green monkey Vero cells assessed as reduction of virus titers at MNTC dose incubated for 24 hr measured after 3 days by TCID50 assay; format: functional, organism-based
[14] = test system: Vero; assay: Cytotoxicity against Chlorocebus aethiops (African green monkey) Vero cells assessed as change in morphological changes after 4 days by inverted microscopic analysis; format: cell-based; settings: chlorocebus sabaeus, 96 h
[15] = test system: Radical scavenging activity; assay: Antioxidant activity assessed as DPPH radical scavenging activity at 15 ug/ml after 30 min by spectrophotometric analysis; format: functional
[16] = test system: Candida albicans; assay: Antimicrobial activity against Candida albicans assessed as growth inhibition by disk diffusion method; format: functional
[17] = test system: Aspergillus niger; assay: Antimicrobial activity against Aspergillus niger assessed as growth inhibition by disk diffusion method; format: functional
[18] = test system: Escherichia coli; assay: Antimicrobial activity against Escherichia coli isolated from infected patient assessed as growth inhibition by disk diffusion method; format: functional
[19] = test system: Salmonella typhi; assay: Antimicrobial activity against Salmonella enterica subsp. enterica serovar Typhi isolated from infected patient assessed as growth inhibition by disk diffusion method; format: functional
[20] = test system: Bacillus subtilis; assay: Antimicrobial activity against Bacillus subtilis isolated from infected patient assessed as growth inhibition by disk diffusion method; format: functional
[21] = test system: Staphylococcus aureus; assay: Antimicrobial activity against Staphylococcus aureus isolated from infected patient assessed as growth inhibition by disk diffusion method; format: functional
[22] = test system: HepG2; assay: Growth inhibition of Homo sapiens (human) HepG2 cells at 25 to 100 ug/ml after 48 hr by MTT assay; format: functional, cell-based

| Compound | zone of inhibition at 40 µg/mL [1] [mm] | zone of inhibition at 40 µg/mL [2] [mm] | zone of inhibition at 40 µg/mL [3] [mm] | zone of inhibition at 40 µg/mL [4] [mm] | zone of inhibition at 40 µg/mL [5] [mm] | zone of inhibition at 40 µg/mL [6] [mm] | CC50 [7] [µg/mL] | inhibition (INH) [8] [%] | inhibition (INH) [9] [%] | inhibition (INH) [10] [%] | inhibition [11] | inhibition [12] | inhibition [13] | MNTD [14] [µg] | Activity [15] [%] | MIC [16] [µg/mL] | MIC [17] [µg/mL] | MIC [18] [µg/mL] | MIC [19] [µg/mL] | MIC [20] [µg/mL] | also measured |
| --- | --- | --- | --- | --- | --- | --- | --- | --- | --- | --- | --- | --- | --- | --- | --- | --- | --- | --- | --- | --- | --- |
| OC(Cn1cncn1)(Cn1cncn1)c1ccc(F)cc1F [FLUCONAZOLE] | 24 | 25 | – | – | – | – | – | – | – | – | – | – | – | – | – | – | – | – | – | – | – |
| O=C(O)c1cn(C2CC2)c2cc(N3CCNCC3)c(F)cc2c1=O [CIPROFLOXACIN] | – | – | 23 | 23 | 24 | – | – | – | – | – | – | – | – | – | – | – | – | – | – | – | – |
| COc1ccc(/C=C/C(=O)c2cc(C)oc2C)cc1 | 18 | 18 | 24 | 23 | 21 | 21 | 63 (≈ 246 µM) | 0 | 0 | 0 | inactive | inactive | inactive | 1.3 | 64.9 | 30 (≈ 117 µM) | 30 (≈ 117 µM) | 30 (≈ 117 µM) | 20 (≈ 78 µM) | 40 (≈ 156 µM) | MIC [21]: 40 µg/mL (≈ 156 µM) |
| CCc1ccc(/C=C/C(=O)c2cc(C)oc2C)o1 | 21 | 22 | 23 | 24 | 18 | 27 | 69 (≈ 282 µM) | 0 | 0 | 0 | inactive | inactive | inactive | 2.08 | 31 | 40 (≈ 164 µM) | 40 (≈ 164 µM) | 40 (≈ 164 µM) | 40 (≈ 164 µM) | 30 (≈ 123 µM) | MIC [21]: 40 µg/mL (≈ 164 µM) |
| Cc1cc(C(=O)/C=C/c2c[nH]c3ccccc23)c(C)o1 | 19 | 11 | 22 | 22 | 22 | 21 | 81 (≈ 305 µM) | 0 | 0 | 0 | inactive | inactive | inactive | 75 | 31 | 40 (≈ 151 µM) | 40 (≈ 151 µM) | 40 (≈ 151 µM) | 30 (≈ 113 µM) | 40 (≈ 151 µM) | MIC [21]: 20 µg/mL (≈ 75.4 µM) |
| O=C(/C=C/c1c[nH]c2ccccc12)c1ccsc1 | 28 | 24 | 19 | 16 | 19 | 20 | 36 (≈ 142 µM) | 0 | 0 | 0 | inactive | inactive | inactive | 1.3 | 31 | 30 (≈ 118 µM) | 30 (≈ 118 µM) | 30 (≈ 118 µM) | 30 (≈ 118 µM) | 40 (≈ 158 µM) | MIC [21]: 30 µg/mL (≈ 118 µM) |
| COc1ccc(/C=C/C(=O)c2ccsc2)cc1 | 25 | 23 | 24 | 24 | 25 | 26 | 12 (≈ 49.1 µM) | 0 | 0 | 0 | inactive | inactive | inactive | 6.24 | 31 | 30 (≈ 123 µM) | 30 (≈ 123 µM) | 20 (≈ 81.9 µM) | 40 (≈ 164 µM) | 30 (≈ 123 µM) | growth inhibition (GI) [22]: Active; MIC [21]: 20 µg/mL (≈ 81.9 µM) |
| O=C(/C=C/c1ccc[nH]1)c1ccsc1 | 23 | 23 | 23 | 23 | 16 | 24 | 21 (≈ 103 µM) | 0 | 0 | 0 | inactive | inactive | inactive | 4.68 | 31 | 40 (≈ 197 µM) | 30 (≈ 148 µM) | 40 (≈ 197 µM) | 40 (≈ 197 µM) | 30 (≈ 148 µM) | MIC [21]: 40 µg/mL (≈ 197 µM) |
| Cc1cc(C(=O)/C=C/c2ccc[nH]2)c(C)o1 | 17 | 21 | 19 | 21 | 21 | 18 | 59 (≈ 274 µM) | 0 | 0 | 0 | inactive | inactive | inactive | 25 | 31 | 30 (≈ 139 µM) | 40 (≈ 186 µM) | 40 (≈ 186 µM) | 40 (≈ 186 µM) | 30 (≈ 139 µM) | MIC [21]: 30 µg/mL (≈ 139 µM) |
| O=C(/C=C/c1ccc(-c2ccccc2)cc1)c1ccsc1 | 30 | 24 | 15 | 18 | 17 | 22 | 13 (≈ 44.8 µM) | 0 | 0 | 0 | inactive | inactive | inactive | 7.8 | 31 | 30 (≈ 103 µM) | 40 (≈ 138 µM) | 30 (≈ 103 µM) | 30 (≈ 103 µM) | 30 (≈ 103 µM) | growth inhibition (GI) [22]: Active; MIC [21]: 30 µg/mL (≈ 103 µM) |
